Experimental data taken from ChEMBL document CHEMBL4020848, “Antibacterial Activity Affected by the Conformational Flexibility in Glycine-Lysine Based α-Helical Antimicrobial Peptides” (J Med Chem, 2018).
Calls of active or inactive are those of the source. The calls are words filed in the database; no cut-off is given here.

Key:
[1] = system: Escherichia coli; assay: Induction of membrane permeabilization in Escherichia coli ATCC 25922 assessed as loss of pili/flagella at MBC after 1 hr by atomic force microscopic method; assay type: functional
[2] = system: Escherichia coli; assay: Bactericidal activity against Escherichia coli ATCC 25922 after 18 hrs by microdilution method; assay type: functional; conditions: for MBC: ATCC 25922, 18 h, read-out: MBC=>99.9
[3] = system: Escherichia coli; assay: Antibacterial activity against Escherichia coli ATCC 25922 after 18 hrs by microdilution method; assay type: functional
[4] = system: Escherichia coli; assay: Induction of membrane permeabilization in Escherichia coli ATCC 25922 assessed as loss of pili/flagella at MIC after 1 hr by atomic force microscopic method; assay type: functional
[5] = system: Escherichia coli; assay: Induction of membrane permeabilization in Escherichia coli ATCC 25922 assessed as formation of pores/cavities at MIC after 1 hr by atomic force microscopic method; assay type: functional
[6] = system: Klebsiella pneumoniae; assay: Bactericidal activity against clinical isolates of Klebsiella pneumoniae after 18 hrs by microdilution method; assay type: functional; conditions: read-out: MBC=>99.9
[7] = system: Klebsiella pneumoniae; assay: Bactericidal activity against Klebsiella pneumoniae ATCC 13883 after 18 hrs by microdilution method; assay type: functional; conditions: ATCC 13883, 18 h, read-out: MBC=>99.9
[8] = system: Escherichia coli; assay: Antibacterial activity against clinical isolates of Escherichia coli after 18 hrs by microdilution method; assay type: functional
[9] = system: Klebsiella pneumoniae; assay: Antibacterial activity against Klebsiella pneumoniae ATCC 13883 after 18 hrs by microdilution method; assay type: functional; conditions: ATCC 13883, 18 h
[10] = system: Acinetobacter baumannii; assay: Bactericidal activity against Acinetobacter baumannii ATCC 19606 after 18 hrs by microdilution method; assay type: functional; conditions: ATCC 19606 = CIP 70.34 = JCM 6841, 18 h, read-out: MBC=>99.9
[11] = system: Klebsiella pneumoniae; assay: Antibacterial activity against clinical isolates of Klebsiella pneumoniae after 18 hrs by microdilution method; assay type: functional
[12] = system: Escherichia coli; assay: Induction of membrane permeabilization in Escherichia coli ATCC 25922 assessed as propidium iodide uptake preincubated up to 60 mins followed by propidium iodide addition by flow cytometry; assay type: functional
[13] = system: Pseudomonas aeruginosa; assay: Antibacterial activity against clinical isolates of Pseudomonas aeruginosa after 18 hrs by microdilution method; assay type: functional
[14] = system: Staphylococcus aureus; assay: Antibacterial activity against clinical isolates of Staphylococcus aureus after 18 hrs by microdilution method; assay type: functional
[15] = system: Escherichia coli; assay: Induction of membrane permeabilization in Escherichia coli ATCC 25922 assessed as propidium iodide uptake at 0.25 to 1 times MIC preincubated up to 60 mins followed by propidium iodide addition by flow cytometry relative to control; assay type: functional
[16] = system: Escherichia coli; assay: Induction of membrane permeabilization in Escherichia coli ATCC 25922 assessed as loss of pili/flagella up to 128 uM after 1 hr by atomic force microscopic method; assay type: functional
[17] = system: Staphylococcus aureus; assay: Bactericidal activity against Staphylococcus aureus ATCC 25923 after 18 hrs by microdilution method; assay type: functional; conditions: ATCC 25923, 18 h, read-out: MBC=>99.9
[18] = system: Escherichia coli; assay: Induction of membrane permeabilization in Escherichia coli ATCC 25922 assessed as surface indentations at MIC after 1 hr by atomic force microscopic method; assay type: functional
[19] = system: Escherichia coli; assay: Induction of membrane permeabilization in Escherichia coli ATCC 25922 assessed as bleb formation at MIC after 1 hr by atomic force microscopic method; assay type: functional
[20] = system: Staphylococcus aureus; assay: Growth inhibition of Staphylococcus aureus ATCC 25923 measured every 10 mins for 4 hrs; assay type: functional
[21] = system: Escherichia coli; assay: Induction of membrane permeabilization in Escherichia coli ATCC 25922 assessed as massive cell disruption/collapse at MBC after 1 hr by atomic force microscopic method; assay type: functional
[22] = system: Acinetobacter baumannii; assay: Antibacterial activity against Acinetobacter baumannii ATCC 19606 after 18 hrs by microdilution method; assay type: functional; conditions: ATCC 19606 = CIP 70.34 = JCM 6841, 18 h
[23] = system: Pseudomonas aeruginosa; assay: Bactericidal activity against Pseudomonas aeruginosa ATCC 27853 after 18 hrs by microdilution method; assay type: functional; conditions: ATCC 27853, 18 h, read-out: MBC=>99.9
[24] = system: Pseudomonas aeruginosa; assay: Bactericidal activity against clinical isolates of Pseudomonas aeruginosa after 18 hrs by microdilution method; assay type: functional; conditions: read-out: MBC=>99.9
[25] = system: Acinetobacter baumannii; assay: Bactericidal activity against clinical isolates of Acinetobacter baumannii after 18 hrs by microdilution method; assay type: functional; conditions: read-out: MBC=>99.9
[26] = system: Escherichia coli; assay: Bactericidal activity against clinical isolates of Escherichia coli after 18 hrs by microdilution method; assay type: functional; conditions: read-out: MBC=>99.9
[27] = system: Pseudomonas aeruginosa; assay: Antibacterial activity against Pseudomonas aeruginosa ATCC 27853 after 18 hrs by microdilution method; assay type: functional; conditions: ATCC 27853, 18 h
[28] = system: Staphylococcus aureus; assay: Bactericidal activity against clinical isolates of Staphylococcus aureus after 18 hrs by microdilution method; assay type: functional; conditions: read-out: MBC=>99.9
[29] = system: Staphylococcus aureus; assay: Antibacterial activity against Staphylococcus aureus ATCC 25923 after 18 hrs by microdilution method; assay type: functional; conditions: ATCC 25923, 18 h
[30] = system: Escherichia coli; assay: Growth inhibition of Escherichia coli ATCC 25922 measured every 10 mins for 4 hrs; assay type: functional
[31] = system: Acinetobacter baumannii; assay: Antibacterial activity against clinical isolates of Acinetobacter baumannii after 18 hrs by microdilution method; assay type: functional
[32] = Selectivity index, ratio of HC50 for human RBC to MIC for Escherichia coli ATCC 25922
[33] = Selectivity index, ratio of HC50 for human RBC to MIC for Escherichia coli
[34] = Selectivity index, ratio of HC50 for human RBC to MIC for Pseudomonas aeruginosa ATCC 27853
[35] = Selectivity index, ratio of HC50 for human RBC to MIC for Staphylococcus aureus ATCC 25923
[36] = system: Escherichia coli; assay: Induction of membrane permeabilization in Escherichia coli ATCC 25922 assessed as propidium iodide uptake at MIC preincubated for 15 mins followed by propidium iodide addition by flow cytometry relative to control; assay type: functional
[37] = system: Escherichia coli; assay: Ratio of MIC to IC50 for Escherichia coli ATCC 25922; assay type: functional
[38] = Selectivity index, ratio of HC50 for human RBC to MIC for Klebsiella pneumoniae
[39] = Selectivity index, ratio of HC50 for human RBC to MIC for Pseudomonas aeruginosa
[40] = Selectivity index, ratio of HC50 for human RBC to MIC for Acinetobacter baumannii ATCC 19606
[41] = Selectivity index, ratio of HC50 for human RBC to MIC for Klebsiella pneumoniae ATCC 13883
[42] = Selectivity index, ratio of HC50 for human RBC to MIC for Staphylococcus aureus
[43] = Selectivity index, ratio of HC50 for human RBC to MIC for Acinetobacter baumannii

Substance	Activity [1]	Activity [5]	MBC [6]	MBC [7]	MIC [8]	MIC [9]	MBC [10]	MIC [11]	IC50 [12]	MIC [13]	MIC [14]	MBC [17]	Activity [18]	MBC [2]	MIC ([3]; ATCC 25922, 18 h)	Activity [19]	IC50 [20]	Activity [21]	MIC [22]	MBC [23]	further results
COLISTIN	Active	–	–	–	–	–	–	–	–	–	–	–	–	–	–	–	–	–	–	–	MBC=>99.9 [2]: 0.5 µM; MIC [3]: 0.5 µM; Activity [4]: Active
H-KIAGKAGKIAKIAGKAGKIA-NH2	Active	Active	> 64 µM	> 64 µM	> 64 µM	> 64 µM	> 64 µM	> 64 µM	> 128000 nM	> 64 µM	> 64 µM	> 64 µM	Active	> 64 µM	> 64 µM	Active	> 128000 nM	Active	> 64 µM	> 64 µM	Activity [15]: <5%; Activity [16]: inactive; MBC [24]: > 64 µM; MBC [25]: > 64 µM; MBC [26]: > 64 µM; MIC [27]: > 64 µM; MBC [28]: > 64 µM; MIC [29]: > 64 µM; IC50 [30]: > 128000 nM; MIC [31]: > 64 µM
H-KIAKGALKALKIAKGALKAL-NH2	Active	Active	16 µM	4 µM	64 µM	2 to 4 µM	2 µM	8 µM	600 nM	8 to 16 µM	16 µM	32 µM	Active	16 µM	4 µM	Active	1600 nM	Active	1 to 2 µM	16 to 32 µM	Selectivity Index [32]: 25; Selectivity Index [33]: < 1; Selectivity Index [34]: 6 to 12; Selectivity Index [35]: 3 to 6; Activity [36]: >80%; Ratio [37]: >10; Selectivity Index [38]: 12; Selectivity Index [39]: 6 to 12; MBC [24]: 16 µM; MBC [25]: > 64 µM; MBC [26]: > 64 µM; Selectivity Index [40]: 50 to 100; Selectivity Index [41]: 25 to 50; MIC [27]: 8 to 16 µM; MBC [28]: 16 µM; MIC [29]: 16 to 32 µM; IC50 [30]: 300 nM; MIC [31]: > 64 µM; Selectivity Index [42]: 6; Selectivity Index [43]: < 1
H-KIALKALKALKALGKALKAL-NH2	Active	Active	32 to 64 µM	4 µM	32 µM	2 to 4 µM	2 µM	16 to 32 µM	200 nM	32 µM	2 to 4 µM	4 µM	Active	2 to 4 µM	1 to 2 µM	Active	400 nM	Active	2 µM	16 µM	Selectivity Index [32]: 5 to 10; Selectivity Index [33]: < 1; Selectivity Index [34]: < 1; Selectivity Index [35]: 2.5; Activity [36]: >80%; Selectivity Index [38]: < 1; Selectivity Index [39]: < 1; MBC [24]: 32 µM; MBC [25]: 32 µM; MBC [26]: 32 µM; Selectivity Index [40]: 5; Selectivity Index [41]: 2 to 6; MIC [27]: 8 to 16 µM; MBC [28]: 4 to 8 µM; MIC [29]: 4 µM; IC50 [30]: 350 nM; MIC [31]: 16 to 32 µM; Selectivity Index [42]: 2 to 6; Selectivity Index [43]: < 1
H-KIGKALGKALKALGKALGKA-NH2	Active	Active	32 µM	32 µM	32 to 64 µM	16 µM	2 µM	16 µM	1400 nM	16 to 32 µM	16 µM	32 µM	Active	16 µM	8 µM	Active	2300 nM	Active	2 µM	16 µM	Selectivity Index [32]: 2; Selectivity Index [33]: < 1; Selectivity Index [34]: 2; Selectivity Index [35]: < 1; Activity [36]: >80%; Selectivity Index [38]: < 1; Selectivity Index [39]: < 1; MBC [24]: 32 µM; MBC [25]: 64 µM; MBC [26]: 64 µM; Selectivity Index [40]: 5; Selectivity Index [41]: < 1; MIC [27]: 8 µM; MBC [28]: 16 to 32 µM; MIC [29]: 16 µM; IC50 [30]: 700 nM; MIC [31]: 32 to 64 µM; Selectivity Index [42]: < 1; Selectivity Index [43]: < 1
